From patent publication US6156700A, “3-(1,2-Benzisothiazol- and isoxazol-5-yl)-2,4(1H,3H)-pyrimidinedione or thione and 3-(1,2-benzisothiazol- and isoxazol-5-yl)-4(3H)-pyrimidinone or thione herbicidal agents” (American Cyanmid Company, priority 1998, dated 2000) come the findings set out here.

For assay [1], the system named is Wheat, Winter, cv Riband, Triticum aestivum. The experiment in a line: Postemergence herbicidal evaluation, TRZAWR. The assay is classed as in vivo. The conditions noted are these: 0.0630 kg/ha. Here is the method:
(§1) In the tests, seedling plants are grown in jiffy flats for about two weeks. The test compounds are dispersed in 50/50 acetone/water mixtures containing 0.5% TWEEN®20, a polyoxyethylene sorbitan monolaurate surfactant of Atlas Chemical Industries, in sufficient quantities to provide the equivalent of about 0.0157 kg to 0.500 kg per hectare of active compound when applied to the plants through a spray nozzle operating at 40 psi for a predetermined time. After spraying, the plants are placed on greenhouse benches and are cared for in accordance with conventional greenhouse procedures. From four to five weeks after treatment, the seedling plants are examined and rated according to the rating system set forth below. Where more than one test is involved for a given compound, the data are averaged.
(§2) Results of herbicide evaluation are expressed on a rating scale (0-9). The scale is based upon a visual observation of plant stand, vigor, malformation, size, chlorosis and overall plant appearance as compared with a control.

For assay [2], the system named is Corn, Field, Zea mays. The assay can be described thus: Postemergence herbicidal evaluation, ZEAMX. The settings on record: 0.0630 kg/ha. The assay is classed as in vivo, L. The method, then:
as §1, §2

For assay [3], the system named is Lambsquarters, Common, Chenopodium album. The experiment in a line: Postemergence herbicidal evaluation, CHEAL. The assay is classed as in vivo, L. The settings on record: 0.0630 kg/ha. The method, then:
as §1, §2

The test system of assay [4] is Soybean, Williams, Glycine max. The experiment in a line: Postemergence herbicidal evaluation, GLXMAW. The assay is classed as in vivo, (L.) Merr. cv Williams. The conditions noted are these: 0.0630 kg/ha. The method, then: as §1, §2
Assay [5] deals with Ragweed, Common, Ambrosia artemisifolia. The experiment in a line: Postemergence herbicidal evaluation, AMBEL. The settings on record: 0.0630 kg/ha. It is filed as in vivo, L. Here is the method: as §1, §2
For assay [6], the system named is Foxtail, Green, Setaria viridis. The assay can be described thus: Postemergence herbicidal evaluation, SETVI. The conditions noted are these: 0.0630 kg/ha. It is filed as in vivo, (L.) Beau. Here is the method: as §1, §2
For assay [7], the system named is Galium, Galium aparine. The assay can be described thus: Postemergence herbicidal evaluation, GALAP. It is filed as in vivo. The conditions noted are these: 0.0630 kg/ha. Here is the method:
as §1, §2

In assay [8] the test system is Morningglory, Ivyleaf, Ipomoea hederacea. The experiment in a line: Postemergence herbicidal evaluation, IPOHE. It is filed as in vivo, (L.) Jacq. The conditions noted are these: 0.0630 kg/ha. The method, then:
as §1, §2

Assay [9] concerns Rice, Tebonnet, Oryza sativa. The experiment in a line: Postemergence herbicidal evaluation, ORYSAT. The assay is classed as in vivo, (L.) Tebonnet. The conditions noted are these: 0.0630 kg/ha. Here is the method: as §1, §2
For assay [10], the system named is Velvetleaf, Abutilon theophrasti. The experiment in a line: Postemergence herbicidal evaluation, ABUTH. It is filed as in vivo, Medic. The settings on record: 0.0630 kg/ha. Here is the method:
as §1, §2

Assay [11] concerns Sicklepod, Cassia obtusifolia. The assay can be described thus: Postemergence herbicidal evaluation, CASOB. The assay is classed as in vivo, L. The conditions noted are these: 0.0630 kg/ha. The method, then:
as §1, §2

For assay [12], the system named is Barnyardgrass, Echinochloa crus-galli. The assay can be described thus: Postemergence herbicidal evaluation, ECHCG. It is filed as in vivo, (L.) Beau. The settings on record: 0.0630 kg/ha. Here is the method:
as §1, §2

Assay [13] has as its system SAGPY Arrowhead (Pygmaea). The assay can be described thus: Postemergence weed control, flooded paddy (Table IV). The assay is classed as in vivo, Sagittaria pygmaea. The arrangement: scale not given here. The text has this:
(§3) Plastic containers containing weeds which are 3 to 5 cm tall and rice seedlings at the 1.5 to 2.5 leaf stage are flooded with water. The water is maintained at 1.5 to 3 cm above the soil surface for the duration of the experiment. Test compounds are applied as aqueous/acetone mixtures 50/50 v/v directly into the flood water to provide the equivalent of about 0.0313 to 0.500 kg/ha of active ingredient. The treated containers are placed on greenhouse benches and cared for in accordance with conventional greenhouse procedures. Three to four weeks after treatment, the test is terminated and each container is examined and herbicidal effect rated according to the rating system provided in Example 185. The compounds evaluated are reported by compound number given in Example 185.

The subject of assay [14] is CYPIR Rice Flatsedge. The assay is described as above. The arrangement: scale not given here. The assay is classed as in vivo, Cyperus iria.
Text: as §3

The test system of assay [15] is CYPSE Flatsedge. The assay is described as above. The assay is classed as in vivo, Cyperus serotinus. On the set-up: scale not given here.
Text: as §3

For assay [16], the system named is MOOVA Monochoria. The assay is described as above. The assay is classed as in vivo, Monochoria vaginalis. The arrangement: scale not given here.
Text: as §3

The subject of assay [17] is ECHORC Watergrass (Calif.). Described as above. The assay is classed as in vivo, Echinochloa oryzoides. The arrangement: scale not given here.
Text: as §3

Assay [18] relates to ORYSAT Rice, Tebonnet. The assay can be described thus: Rice tolerance, flooded paddy (Table IV). It is filed as in vivo, Oryza sativa. The arrangement: scale not given here. The settings on record: crop tolerance.
Text: as §3

SMILES strings stand for the structures.

As to `C=CCOc1ccc(C)cc1-c1nsc2ccc(-n3c(=O)cc(C(F)(F)F)n(C)c3=O)cc12` [Compound 65, 3-{3-[6-(Allyloxy)-m-tolyl)-1,2-benzisothiazol-5-yl}-1-methyl-6-(trifluoromethyl)-2,4(1H,3H)-pyrimidinedione], the “herbicide rating (0-9)” value was found to be 3.5 in assay [1]; 5.5 in assay [2]; 9.0 in [3]; 5.5 in [4]; 9.0 in assay [5]; 9.0 in assay [6]. Besides, the “herbicide rating (0-9)” value in assay [7] turned out to be 4.0; in assay [8], 9.0; in assay [9] it was 1.5; in [10] it was 9.0; in [11], 9.0; in [12], 1.0.

On to `Cc1ccc(OCC(=O)OCC#Cc2ccccc2)c(-c2nsc3ccc(-n4c(=O)cc(C(F)(F)F)n(C)c4=O)cc23)c1` [Compound 73], for which the “herbicide rating (0-9)” value amounted to 4.5 in assay [1]; 6.0 in assay [2]; 9.0 in [3]; 9.0 in [4]; 9.0 in assay [5]; 9.0 in assay [6]. In addition, the “herbicide rating (0-9)” value in assay [7] came out at 9.0; in assay [8], 9.0; in assay [9] it was 5.5; in [10] it was 9.0; in assay [11], 9.0; in [12], 9.0.

Regarding `COCc1nsc2cc(F)c(-n3c(=O)cc(C(F)(F)F)n(C)c3=O)cc12` [Compound 378, 2,4(1H,3H)-Pyrimidinedione, 3-[6-fluoro-3-(methoxymethyl)-1,2-benzisothiazol-5-yl]-1-methyl-6-(trifluoromethyl)-], the herbicidal effect rating in assay [13] (0.1250 kg/ha), in assay [14] (0.1250 kg/ha), in assay [15] (0.1250 kg/ha), in assay [16] (0.1250 kg/ha), in [17] (0.1250 kg/ha) and in assay [18] (0.1250 kg/ha) was 9.0 throughout.

For the compound `COC(=O)COc1ccc(C)cc1-c1noc2cc(F)c(-n3c(=O)cc(C(F)(F)F)n(C)c3=O)cc12` [Compound 359, Acetic acid, {{2-{5-[3,6-dihydro-3-methyl-2,6-dioxo-4-(trifluoromethyl)-1(2H)-pyrimidinyl]-6-fluoro-1,2-benzisoxazol-3-yl}-p-tolyl}oxy}-, methyl ester], the herbicidal effect rating was 0.0 in assay [13] (0.1250 kg/ha); 9.0 in assay [14] (0.1250 kg/ha); 0.0 in assay [15] (0.1250 kg/ha); 9.0 in assay [16] (0.1250 kg/ha); 6.0 in assay [17] (0.1250 kg/ha); 4.0 in assay [18] (0.1250 kg/ha).

For `COc1ccc(I)cc1-c1nsc2ccc(-n3c(=O)cc(C(F)(F)F)n(C)c3=O)cc12` [Compound 448, 2,4(1H,3H)-Pyrimidinedione, 3-[3-(5-iodo-2-methoxyphenyl)-1,2-benzisothiazol-5-yl]-1-methyl-6-(trifluoromethyl)-], the herbicidal effect rating was 0.0 in assay [13] (0.1250 kg/ha); 0.0 in assay [13] (0.2500 kg/ha); 7.0 in assay [14] (0.1250 kg/ha); 9.0 in assay [14] (0.2500 kg/ha); 0.0 in assay [15] (0.1250 kg/ha); 0.0 in assay [15] (0.2500 kg/ha). Moreover, the herbicidal effect rating in assay [16] (0.1250 kg/ha) was determined as 1.0; in assay [16] (0.2500 kg/ha), 4.0; in assay [17] (0.1250 kg/ha), 1.0; in assay [17] (0.2500 kg/ha) it was 2.0; in assay [18] (0.1250 kg/ha) it was 1.0; in assay [18] (0.2500 kg/ha), 2.0.

Consider `CON(C)C(=O)COc1ccccc1-c1nsc2ccc(-n3c(=O)cc(C(F)(F)F)n(C)c3=O)cc12` [Compound 354, Acetamide,2-{o-{5-[3,6-dihydro-3-methyl-2,6-dioxo-4-(trifluoromethyl)-1(2H)-pyrimidinyl]-1,2-benzisothiazol-3-yl}phenoxy}-N-methoxy-N-methyl-], for which the herbicidal effect rating in [13] (0.1250 kg/ha) was 9.0; in [14] (0.1250 kg/ha), 9.0; in [15] (0.1250 kg/ha) it was 9.0; in assay [16] (0.1250 kg/ha) it was 9.0; in [17] (0.1250 kg/ha), 9.0; in assay [18] (0.1250 kg/ha), 6.0.

Turning to `COC(=O)COc1ccc(C)cc1-c1noc2ccc(-n3c(=O)cc(C(F)(F)F)n(C)c3=O)c(Cl)c12` [Compound 261, Acetic acid,{{2-{4-chloro-5-[3,6-dihydro-3-methyl-2,6-dioxo-4-(trifluoromethyl)-1(2H)-pyrimidinyl]-1,2-benzisoxazol-3-yl}-p-tolyl}oxy}-, methyl ester], the herbicidal effect rating turned out to be 0.0 in [13] (0.1250 kg/ha); 0.0 in assay [13] (0.2500 kg/ha); 6.0 in assay [14] (0.1250 kg/ha); 6.0 in assay [14] (0.2500 kg/ha); 0.0 in assay [15] (0.1250 kg/ha); 0.0 in assay [15] (0.2500 kg/ha). The herbicidal effect rating came to 9.0 in assay [16] (0.1250 kg/ha); 9.0 in [16] (0.2500 kg/ha); 0.0 in assay [17] (0.1250 kg/ha); 0.0 in [17] (0.2500 kg/ha); 0.0 in [18] (0.1250 kg/ha); 0.0 in assay [18] (0.2500 kg/ha).

On to `CCCCC(=O)c1nsc2ccc(-n3c(=O)cc(C(F)(F)F)n(C)c3=O)cc12` [Compound 431, 2,4(1H,3H)-Pyrimidinedione, 1-methyl-6-(trifluoromethyl)-3-(3-valeryl-1,2-benzisothiazol-5-yl)-], for which the herbicidal effect rating in assay [13] (0.1250 kg/ha) is listed as 0.0; in assay [13] (0.2500 kg/ha) it was 4.0; in [14] (0.1250 kg/ha), 9.0; in assay [14] (0.2500 kg/ha) it was 9.0; in assay [15] (0.1250 kg/ha), 0.0; in assay [15] (0.2500 kg/ha) it was 4.0. The herbicidal effect rating stood at 9.0 in [16] (0.1250 kg/ha); 9.0 in [16] (0.2500 kg/ha); 9.0 in assay [17] (0.1250 kg/ha); 9.0 in assay [17] (0.2500 kg/ha); 3.0 in assay [18] (0.1250 kg/ha); 7.0 in [18] (0.2500 kg/ha).

As to `COc1ccc(OC)c(-c2nsc3ccc(-n4c(=O)cc(C(F)(F)F)n(C)c4=O)cc23)c1` [Compound 333, 2,4(1H,3H)-Pyrimidinedione, 3-[3-(2,5-dimethoxyphenyl)-1,2-benzisothiazol-5-yl]-1-methyl-6-(trifluoromethyl)-], the herbicidal effect rating in assay [13] (0.1250 kg/ha) came out at 4.0; in assay [13] (0.2500 kg/ha), 4.0; in assay [14] (0.1250 kg/ha), 9.0; in [14] (0.2500 kg/ha), 9.0; in assay [15] (0.1250 kg/ha) it was 4.0; in assay [15] (0.2500 kg/ha), 8.0. Further, the herbicidal effect rating in [16] (0.1250 kg/ha) is on record as 9.0; in [16] (0.2500 kg/ha) it was 9.0; in assay [17] (0.1250 kg/ha), 9.0; in [17] (0.2500 kg/ha) it was 9.0; in assay [18] (0.1250 kg/ha), 6.0; in assay [18] (0.2500 kg/ha) it was 6.0.
